Measurements from patent publication US7109207B2, “Spirosubstituted piperidines as selective melanin concentrating hormone receptor antagonists for the treatment of obesity” (Schering Corporation, priority 2002, dated 2006).
Where two headings read alike, the source gives them in different places.

Biological target: T1, MCH receptor (Homo sapiens, UniProt Q99705)
T1 construct: expressed in transfected cells; host or cells: CHO cells
Experiment: MCH Receptor Binding Assay ([125I]-MCH, SPA, membranes from CHO cells expressing the MCH receptor)
Settings: CHO cell membranes
Experimental: MCH Receptor Binding Assay:
Membranes from CHO cells expressing the MCH receptor were prepared by lysing cells with 5 mM HEPES for 15 min at 4C. Cell lysates were centrifuged ([…], 15 min) and the pellet was resuspended in 5 mM HEPES. For each 96-well plate (Microlite, Dynex Technologies), 1 mg of cell membranes were incubated with 10 mg of wheat germ agglutinin SPA beads (Amersham) for 5 min at 4 C in a volume of 10 ml of binding buffer (25 mM HEPES, 10 mM MGCl2, 10 mM NaCl, 5 mM MnCl2, 0.1% BSA). The membrane/bead mixture was centrifuged (1500×g, 3.5 min), the supernatant was aspirated, and the pellet was resuspended in 10 ml binding buffer. The centrifugation, aspiration and resuspension were then repeated. The membrane/bead mixture (100 μl) was then added to 96-well plates containing 50 μof 500 pM [^125I]-MCH (NEN) and […] of the appropriate concentration of compound (4× the desired final concentration). Nonspecific binding was determined by including 1 μM MCH in the binding reaction. The binding reaction was incubated at room temperature for 2 h. Plates were then analyzed in a TOPCOUNT microplate scintillation counter (Packard). Data was analyzed and Ki values were determined using GraphPad Prism.

T1 sequence (Q99705 whole entry): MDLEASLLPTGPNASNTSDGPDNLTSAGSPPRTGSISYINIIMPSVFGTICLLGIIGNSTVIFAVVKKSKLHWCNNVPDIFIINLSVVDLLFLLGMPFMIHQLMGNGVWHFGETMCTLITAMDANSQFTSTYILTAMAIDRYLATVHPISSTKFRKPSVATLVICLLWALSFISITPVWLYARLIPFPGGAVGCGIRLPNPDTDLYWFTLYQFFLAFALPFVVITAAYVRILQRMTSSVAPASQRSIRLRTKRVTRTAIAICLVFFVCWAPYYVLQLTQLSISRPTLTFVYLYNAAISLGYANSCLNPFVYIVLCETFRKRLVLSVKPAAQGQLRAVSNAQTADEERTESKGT

Structure (SMILES)	Ki (read-out: Activity (Ki class)) [µM]	Ki (read-out: Ki value) [µM]
CC(C)N1CCC2(CC1)c1ccc(-c3cccc(C#N)c3)cc1CCN2Cc1nc2ccccc2[nH]1 [Compound 12a]	> 0.1	
N#Cc1cccc(-c2ccc3c(c2)CCN(CC(=O)Nc2ccc(Cl)c(C(F)(F)F)c2)C32CCN(CC3CC3)CC2)c1 [Compound 8i]	> 0.1	
N#Cc1cccc(-c2ccc3c(c2)CCN(CC(=O)Nc2ccc(Cl)cc2)C32CCN(CC3CC3)CC2)c1 [Compound 8b]	> 0.1	
CN(C)S(=O)(=O)N1CCC2(CC1)c1ccc(-c3cccc(C#N)c3)cc1CCN2CC(=O)Nc1cc(Cl)cc(Cl)c1 [Compound 30d]	> 0.1	
N#Cc1cccc(-c2ccc3c(c2)CCN(Cc2nc4cc(F)c(Cl)cc4[nH]2)C32CCNCC2)c1 [Compound 12e]	> 0.1	
CC(C)(C)OC(=O)N1CCC2(CC1)c1ccc(-c3cccc(C#N)c3)cc1CCN2CC(=O)Nc1cc(Cl)cc(Cl)c1 [Compound 30a]	> 0.1	
CC(=O)N1CCC2(CC1)c1ccc(-c3cccc(C#N)c3)cc1CCN2CC(=O)Nc1cc(Cl)cc(Cl)c1 [Compound 30b]	> 0.1	
CS(=O)(=O)N1CCC2(CC1)c1ccc(-c3cccc(C#N)c3)cc1CCN2CC(=O)Nc1cc(Cl)cc(Cl)c1 [Compound 30c]	> 0.1	
CCN1CCC2(CC1)c1ccc(-c3cccc(C#N)c3)cc1CCN2CC(=O)Nc1cc(Cl)cc(Cl)c1 [Compound 11g]	0.03 to 0.1	
N#Cc1cccc(-c2ccc3c(c2)CCN(CC(=O)Nc2cc(F)cc(C(F)(F)F)c2)C32CCN(CC3CC3)CC2)c1 [Compound 8f]	0.03 to 0.1	
CC(C)N1CCC2(CC1)c1ccc(-c3cccc(C#N)c3)cc1CCN2CC(=O)Nc1ccc(Cl)c(C(F)(F)F)c1 [Compound 7d]	> 0.1	
CN1CCC2(CC1)c1ccc(-c3cccc(C#N)c3)cc1CCN2CC(=O)Nc1cc(Cl)cc(Cl)c1 [Compound 11f]	0.03 to 0.1	
N#Cc1cccc(-c2ccc3c(c2)CCN(CC(=O)Nc2ccc(Cl)c(Cl)c2)C32CCN(CC3CC3)CC2)c1 [Compound 8h]	> 0.1	
N#Cc1cccc(-c2ccc3c(c2)CCN(CC(=O)Nc2cc(F)cc(F)c2)C32CCN(CC3CC3)CC2)c1 [Compound 8g]	0.03 to 0.1	
N#Cc1cccc(-c2ccc3c(c2)CCN(Cc2nc4cc(Cl)c(Cl)cc4[nH]2)C32CCN(CC3CC3)CC2)c1 [Compound 12f]	> 0.1	
N#Cc1cccc(-c2ccc3c(c2)CCN(CC(=O)Nc2cc(Cl)cc(Cl)c2)C32CCN(C3CCSC3)CC2)c1 (stereo not shown) [Compound 11j]	0.03 to 0.1	
CC(C)N1CCC2(CC1)c1ccc(-c3cccc(C#N)c3)cc1CCN2CC(=O)Nc1ccc(Cl)c(Cl)c1 [Compound 7e]	> 0.1	
N#Cc1cccc(-c2ccc3c(c2)CCN(Cc2nc4cc(Cl)c(Cl)cc4[nH]2)C32CCNCC2)c1 [Compound 12d]	> 0.1	
N#Cc1cccc(-c2ccc3c(c2)CCN(CC(=O)Nc2cc(Cl)cc(Cl)c2)C32CCN(CCO)CC2)c1 [Compound 11e]	0.03 to 0.1	
N#Cc1cccc(-c2ccc3c(c2)CCN(CC(=O)Nc2cccc(Cl)c2)C32CCN(CC3CC3)CC2)c1 [Compound 8c]	0.03 to 0.1	

The next lines start with the values.

Ki (read-out: Activity (Ki class)) [µM]	Ki (read-out: Ki value) [µM]	Structure (SMILES)
0.03 to 0.1		N#Cc1cccc(-c2ccc3c(c2)CCN(CC(=O)Nc2cc(Cl)cc(Cl)c2)C32CCN(Cc3ccoc3)CC2)c1 [Compound 11i]
< 0.03		CC(C)N1CCC2(CC1)c1ccc(-c3cccc(C#N)c3)cc1CCN2CC(=O)Nc1cc(Cl)cc(Cl)c1 [Compound 7a]
< 0.03		N#Cc1cccc(-c2ccc3c(c2)CCN(CC(=O)Nc2cc(Cl)cc(Cl)c2)C32CCN(C3CCOCC3)CC2)c1 [Compound 11h]
< 0.03		N#Cc1cccc(-c2ccc3c(c2)CCN(CC(=O)Nc2cc(Cl)cc(Cl)c2)C32CCN(C3CCCC3)CC2)c1 [Compound 11d]
0.03 to 0.1		N#Cc1cccc(-c2ccc3c(c2)CCN(CC(=O)Nc2ccc(F)c(F)c2)C32CCN(CC3CC3)CC2)c1 [Compound 8d]
0.03 to 0.1		N#Cc1cccc(-c2ccc3c(c2)CCN(CC(=O)Nc2cc(Cl)cc(Cl)c2)C32CCNCC2)c1 [Compound 10c]
0.03 to 0.1		CC(C)N1CCC2(CC1)c1ccc(-c3cccc(C#N)c3)cc1CCN2CC(=O)Nc1ccc(F)c(Cl)c1 [Compound 7b]
0.03 to 0.1		CC(C)N1CCC2(CC1)c1ccc(-c3cccc(C#N)c3)cc1CCN2CC(=O)Nc1cc(F)cc(F)c1 [Compound 7c]
< 0.03		N#Cc1cccc(-c2ccc3c(c2)CCN(CC(=O)Nc2cc(Cl)cc(Cl)c2)C32CCN(C3CCC3)CC2)c1 [Compound 11b]
< 0.03	0.011	N#Cc1cccc(-c2ccc3c(c2)CCN(CC(=O)Nc2cc(Cl)cc(Cl)c2)C32CCN(C3CCCCCC3)CC2)c1 [Compound 11a]
< 0.03		N#Cc1cccc(-c2ccc3c(c2)CCN(CC(=O)Nc2ccc(F)c(Cl)c2)C32CCN(CC3CC3)CC2)c1 [Compound 8a]
< 0.03		N#Cc1cccc(-c2ccc3c(c2)CCN(CC(=O)Nc2cc(Cl)cc(Cl)c2)C32CCN(CC3CC3)CC2)c1 [Compound 11c]
< 0.03		N#Cc1cccc(-c2ccc3c(c2)CCN(CC(=O)Nc2ccc(F)c(C(F)(F)F)c2)C32CCN(CC3CC3)CC2)c1 [Compound 8e]
